Data on 1 molecule can be found in article PMC3090393, “New Noncovalent Inhibitors of Penicillin-Binding Proteins from Penicillin-Resistant Bacteria” (PLoS ONE, 2011).

In brackets after ≈: the same amount, converted by molar mass. Where only a bound is given, the exact number is not on record here.

Assay [1] relates to protoplasts of S. aureus ATCC43300 resistant strain. The assay is described as follows: Effect on protoplasts. The format is cell-based, Staphylococcus aureus. To be noted: concentration equivalent to 4 times the MIC; after ten minutes. As for the experimental part: The importance of this hit compound is further underlined by its very promising minimum inhibitory concentrations (MICs) against several Gram-positive bacterial strains, including MRSA (32 µg/mL). […] This assumption is confirmed by the fact that for S. aureus ATCC25923 strain, sensitive to penicillin and devoid of PBP2a, compound 1 has the same MIC value as for the other two resistant S. aureus strains (Table 2) where PBP2a is present. To better understand the antibacterial activity of compound 1, we performed an experiment to evaluate the effect of compound 1 on the protoplasts of S. aureus ATCC43300 resistant strain, at a concentration equivalent to 4 times the MIC. […] Further analysis is needed to better understand the precise mode of action of these inhibitors on the bacterial cell.

Assay [2] deals with Escherichia coli ATCC 8739. The assay is described as follows: In-vitro antibacterial activity (MIC, broth microdilution). The format is cell-based. To be noted: ATCC8739. Put shortly:
(§1)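 Broth microdilution in Müeller-Hinton Broth per EUCAST/CLSI procedures, with compounds dissolved in MHB just before use. Inocula came from colonies of 18 h plates, adjusted to 0.5 McFarland (approximately 1×10^8 CFU mL^−1) in 0.085% NaCl saline, then diluted 200-fold in MHB.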
For orientation: Dilution methods test growth across graded concentrations, often in twofold steps.

Assay [3] relates to Staphylococcus epidermidis ATCC 12228. The description is as above. To be noted: ATCC12228. The assay is classed as cell-based. Put shortly: as §1
For assay [4], the system named is Streptococcus pneumoniae ATCC 33400. Described as above. The assay is classed as cell-based. To be noted: ATCC33400. The procedure, abridged: as §1
Assay [5] concerns Enterococcus faecalis ATCC 7937. The assay is described as above. The format is cell-based. To be noted: ATCC7937. Put shortly: as §1
In assay [6] the test system is Staphylococcus aureus ATCC 25923. The assay is described as above. The assay is classed as cell-based. To be noted: ATCC25923. The procedure, abridged:
as §1

Assay [7] has as its system Enterococcus faecalis ATCC 29212. The assay is described as above. The format is cell-based. To be noted: ATCC29212. The procedure, abridged: as §1
Assay [8] concerns Staphylococcus aureus mp 1 (inducible MRSA). The description is as above. The assay is classed as cell-based. The procedure, abridged:
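Broth microdilution in Müller-Hinton broth per EUCAST/CLSI, compounds dissolved in MHB just before use. Inoculum from 18 h colonies set to 0.5 McFarland (~1×10^8 CFU mL^−1) in saline, then diluted 200-fold in MHB.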

Assay [9] concerns Micrococcus luteus ATCC 9341. The description is as above. The format is cell-based. To be noted: ATCC9341. Put shortly:
as §1

For `CCCCOc1ccc2cc(S(=O)(=O)Nc3ccccc3C(=O)O)ccc2c1` [compound 1, 2-(6-butoxynaphthalene-2-sulfonamido)benzoic acid], in [1], the effect on protoplasts result is listed as “complete lysis of protoplasts”. Besides, the MIC (commonly the lowest concentration found to suppress growth) in [2] was greater than 1020 µg/mL; in assay [3] it was 32 µg/mL (≈ 80.1 µM); in assay [4], 1 µg/mL (≈ 2.5 µM); in assay [5], 16 µg/mL (≈ 40.1 µM); in assay [6], 32 µg/mL (≈ 80.1 µM); in assay [7], 32 µg/mL (≈ 80.1 µM). Also, the figures for the MIC in assay [8] and in assay [9] were 32 µg/mL (≈ 80.1 µM) and 2 µg/mL (≈ 5.01 µM), respectively.
